Data on six compounds can be found in patent US4132802A, “Benzoic acid derivative and benzenesulfonic acid mucolytic process” (Mead Johnson & Company, priority 1978, dated 1979).

The structures appear in SMILES notation. “And” between values parts separate entries of the source, which are not always exact repeats. Equal entries are not always repeated. Where two headings read alike, the source gives them in different places.

Data set [1] in a line: Mucolytic activity: percent reduction in viscosity of sputum, cone-plate viscometer (method of Lieberman). On the set-up: species or system human. As to conditions: for Relative molar potency compared to N-acetyl-L-cysteine: on a molar basis, N-acetyl-L-cysteine = 1; for Mucolytic activity compared to N-acetyl-L-cysteine (in words): compared with N-acetyl-L-cysteine. As for the experimental part:
Mucolytic activity was determined using the method of J. Lieberman, Am. J. Resp. […] This is a viscometric method which employs a cone-plate viscometer (Brookfield Engineering Laboratories, Inc., Stoughton, Mass.). According to this method, a 2 ml. aliquot of a batch of purulent human sputum (obtained from bronchitic patients) is transferred to the center of the viscometer plate and the temperature is allowed to equilibrate. The plate is then rotated at gradually increasing speeds up to 100 r.p.m. during a 2-minute period. This reduces the amount of sputum on the test plate to 1 ml. and reduces the viscosity of the specimen to a reproducible value which is necessary because of the thixotropic properties of sputum. […] The test is repeated with N-acetyl-L-cysteine employing another aliquot of sputum to establish a control for comparison purposes. Relative molar potencies compared to N-acetyl-L-cysteine (NAC) can be determined by varying concentration of the test agent until approximately equivalent mucolytic activity is obtained.

A short description of data set [2]: Toxicity (LD50, TD50) in the mouse. As to conditions: in vivo. An excerpt: The substances of Formula I are relatively non-toxic substances substantially free of other pharmacologic action.

For orientation: LD50 means the dose at which mortality reaches 50%. As usually defined, the TD50 is the dose at which the toxic effect under study appears in half of the subjects. For `O=C(CS)Nc1ccc(C(=O)O)cc1` [Compound 1, 4-(2-MERCAPTOACETAMIDO)BENZOIC ACID], the “Percent reduction in viscosity” value is 32% in data set [1] (0.005 Molar, 1 min, 5000 µM); 50% in data set [1] (0.005 Molar, 3 min, 5000 µM); 57% in data set [1] (0.005 Molar, 6 min, 5000 µM); 55% in data set [1] (0.005 Molar, 9 min, 5000 µM); 55% in data set [1] (0.005 Molar, 12 min, 5000 µM); 55% in data set [1] (0.005 Molar, 15 min, 5000 µM). In addition, the “Percent reduction in viscosity” value in data set [1] (0.01 Molar, 1 min, 10000 µM) came to 45%; in data set [1] (0.01 Molar, 3 min, 10000 µM), 63%; in data set [1] (0.01 Molar, 6 min, 10000 µM), 69%; in data set [1] (0.01 Molar, 9 min, 10000 µM) it was 76%; in data set [1] (0.01 Molar, 12 min, 10000 µM), 82%; in data set [1] (0.01 Molar, 15 min, 10000 µM) it was 84%. Further, the “Relative molar potency compared to N-acetyl-L-cysteine” value in data set [1] is “approximately 12 times”. For the same compound, the LD50 in data set [2] (ip, intraperitoneally, read-out: LD50) was 1110 mg/kg; in data set [2] (oral, read-out: approximate LD50), roughly 2000 mg/kg. In addition, the TD50 in data set [2] (named in the same clause as the oral LD50, read-out: approximate TD50) is roughly 250 mg/kg.
In the case of `O=C(CS)Nc1cccc(C(=O)O)c1` [Compound 2, 3-(2-MERCAPTOACETAMIDO)BENZOIC ACID], the “Percent reduction in viscosity” value in data set [1] (0.03 Molar, 1 min, 30000 µM) was found to be 44%; in data set [1] (0.03 Molar, 3 min, 30000 µM), 67%; in data set [1] (0.03 Molar, 6 min, 30000 µM), 81%; in data set [1] (0.03 Molar, 9 min, 30000 µM), 89%; in data set [1] (0.03 Molar, 12 min, 30000 µM), 91%; in data set [1] (0.03 Molar, 15 min, 30000 µM), 93%. For the same compound, the “Mucolytic activity compared to N-acetyl-L-cysteine (in words)” value in data set [1] is on record as “substantially more active than N-acetyl-L-cysteine”.
Take `O=C(CS)Nc1ccc(S(=O)(=O)O)cc1` [Compound 3, N-(2-MERCAPTOACETYL)SULFANILIC ACID]: the “Percent reduction in viscosity” value turned out to be 34% in data set [1] (0.005 Molar, 1 min, 5000 µM); 47% in data set [1] (0.005 Molar, 3 min, 5000 µM); 50% in data set [1] (0.005 Molar, 6 min, 5000 µM); 50% in data set [1] (0.005 Molar, 9 min, 5000 µM); 47% in data set [1] (0.005 Molar, 12 min, 5000 µM); 44% in data set [1] (0.005 Molar, 15 min, 5000 µM). Also, the “Percent reduction in viscosity” value in data set [1] (0.01 Molar, 1 min, 10000 µM) turned out to be 46%; in data set [1] (0.01 Molar, 3 min, 10000 µM) it was 64%; in data set [1] (0.01 Molar, 6 min, 10000 µM), 66%; in data set [1] (0.01 Molar, 9 min, 10000 µM), 68%; in data set [1] (0.01 Molar, 12 min, 10000 µM) it was 77%; in data set [1] (0.01 Molar, 15 min, 10000 µM) it was 82%.
Turning to `O=C(CS)Nc1ccc(C(=O)NCCO)cc1` [Compound 4, N-(2-HYDROXYETHYL)-4-(2-MERCAPTOACETAMIDO)BENZAMIDE], the “Percent reduction in viscosity” value in data set [1] (0.001 Molar, 1 min) stood at 25%; in data set [1] (0.001 Molar, 3 min, 1000 µM) it was 32%; in data set [1] (0.001 Molar, 6 min, 1000 µM), 36%; in data set [1] (0.001 Molar, 9 min, 1000 µM) it was 36%; in data set [1] (0.001 Molar, 12 min, 1000 µM) it was 36%; in data set [1] (0.001 Molar, 15 min, 1000 µM), 34%. The “Percent reduction in viscosity” value in data set [1] (0.002 Molar, 1 min, 2000 µM) is listed as 26%; in data set [1] (0.002 Molar, 3 min, 2000 µM), 37%; in data set [1] (0.002 Molar, 6 min, 2000 µM), 42%; in data set [1] (0.002 Molar, 9 min, 2000 µM), 44%; in data set [1] (0.002 Molar, 12 min, 2000 µM) it was 44%; in data set [1] (0.002 Molar, 15 min, 2000 µM) it was 42%. The “Percent reduction in viscosity” value in data set [1] (0.005 Molar, 1 min, 5000 µM) is on record as 30%; in data set [1] (0.005 Molar, 3 min, 5000 µM), 58%; in data set [1] (0.005 Molar, 6 min, 5000 µM), 67%; in data set [1] (0.005 Molar, 9 min, 5000 µM), 75%; in data set [1] (0.005 Molar, 12 min, 5000 µM), 82%; in data set [1] (0.005 Molar, 15 min, 5000 µM) it was 82%. Also, the “Relative molar potency compared to N-acetyl-L-cysteine” value in data set [1] is recorded as “approximately 15 times”.
Take `CC(=O)SCC(=O)Nc1ccc(C(=O)O)cc1` [Compound 5, 4-[2-(ACETYLTHIO)ACETAMIDO]BENZOIC ACID]: the “Percent reduction in viscosity” value was found to be 34% in data set [1] (0.03 Molar, 1 min, 30000 µM); 42% in data set [1] (0.03 Molar, 3 min, 30000 µM); 54% in data set [1] (0.03 Molar, 6 min, 30000 µM); 54% in data set [1] (0.03 Molar, 9 min, 30000 µM); 52% in data set [1] (0.03 Molar, 12 min, 30000 µM); 48% in data set [1] (0.03 Molar, 15 min, 30000 µM). In addition, the “Mucolytic activity compared to N-acetyl-L-cysteine (in words)” value in data set [1] was “significantly more active than N-acetyl-L-cysteine”.
Regarding `CC(=O)N[C@@H](CS)C(=O)O` [NAC, N-acetyl-L-cysteine, reference compound], the “Percent reduction in viscosity” value is 25% and 29% and 33% in data set [1] (0.03 Molar, 1 min, 30000 µM); 32% and 33% and 34% in data set [1] (0.03 Molar, 3 min, 30000 µM); 40% and 36% in data set [1] (0.03 Molar, 6 min, 30000 µM); 42% and 40% and 34% in data set [1] (0.03 Molar, 9 min, 30000 µM); 42% and 43% and 34% in data set [1] (0.03 Molar, 12 min, 30000 µM); 40% and 34% in data set [1] (0.03 Molar, 15 min, 30000 µM). In addition, the “Percent reduction in viscosity” value in data set [1] (0.06 Molar, 1 min, 60000 µM) is recorded as 36%; in data set [1] (0.06 Molar, 3 min, 60000 µM) it was 45%; in data set [1] (0.06 Molar, 6 min, 60000 µM), 52%; in data set [1] (0.06 Molar, 9 min, 60000 µM), 50%; in data set [1] (0.06 Molar, 12 min, 60000 µM), 52%; in data set [1] (0.06 Molar, 15 min, 60000 µM), 60%.
